Source: patent US10487092B2, “Pyrazolopyridinamines as MKNK1 and MKNK2 inhibitors” (BAYER PHARMA AKTIENGESELLSCHAFT, priority 2014, dated 2019)

Target: human full-length MKNK1 (Homo sapiens (Human), UniProt Q9BUB5, T344D)
Test: MKNK1 kinase high ATP assay (TR-FRET)
Format: biochemical
Conditions: high ATP (2 mM), 15 min preincubation with enzyme; read-out: MKNK1 IC50
In short: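 GST-tagged full-length MKNK1 (aa 1–424, T344D; insect-cell expressed) preincubated 15 min with compound, then reacted 30 min at 22 °C with 2 mM ATP and 0.06 μM biotinylated peptide (final) in HEPES pH 7.5 buffer. Phosphopeptide detected by TR-FRET 665/620 ratio, normalized to no-inhibitor and no-enzyme controls.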

Sequence of human full-length MKNK1 (Q9BUB5 other isoform, or with tags, fused parts or gaps T344D): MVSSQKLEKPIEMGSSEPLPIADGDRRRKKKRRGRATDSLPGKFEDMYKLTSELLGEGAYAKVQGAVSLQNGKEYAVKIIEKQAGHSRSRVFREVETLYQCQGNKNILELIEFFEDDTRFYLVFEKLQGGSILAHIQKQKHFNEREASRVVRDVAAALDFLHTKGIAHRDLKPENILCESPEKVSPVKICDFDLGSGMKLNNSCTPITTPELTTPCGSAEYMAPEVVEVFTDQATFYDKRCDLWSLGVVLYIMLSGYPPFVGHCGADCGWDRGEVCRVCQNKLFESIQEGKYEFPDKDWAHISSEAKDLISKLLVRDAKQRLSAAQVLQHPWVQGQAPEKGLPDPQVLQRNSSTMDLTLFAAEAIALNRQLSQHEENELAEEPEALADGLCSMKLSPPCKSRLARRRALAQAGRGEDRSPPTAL

Point of comparison: `COc1cn2nccc2cc1Nc1ncnc2sc3c(c12)CC[C@H](C(=O)NCCO)C3` [Example 83, (7S)—N-(2-Hydroxyethyl)-4-[(6-methoxypyrazolo[1,5-a]pyridin-5-yl)amino]-5,6,7,8-tetrahydro[1]benzothieno[2,3-d]pyrimidine-7-carboxamide], IC50 3 nM. Against it:
- COc1cn2nccc2cc1Nc1ncnc2sc3c(c12)CC[C@H](C(=O)NCCC(F)(F)F)C3 [Example 80, (7S)-4-[(6-Methoxypyrazolo[1,5-a]pyridin-5-yl)amino]-N-(3,3,3-trifluoropropyl)-5,6,7,8-tetrahydro[1]benzothieno[2,3-d]pyrimidine-7-carboxamide] — the same, 3 nM
- COc1cn2nccc2cc1Nc1ncnc2sc3c(c12)CC[C@H](C(=O)NCC(C)(C)O)C3 [Example 81, (7S)—N-(2-Hydroxy-2-methylpropyl)-4-[(6-methoxypyrazolo[1,5-a]pyridin-5-yl)amino]-5,6,7,8-tetrahydro[1]benzothieno[2,3-d]pyrimidine-7-carboxamide] — 1.5-fold lower, 2 nM
- COc1cn2nccc2cc1Nc1ncnc2sc3c(c12)CC[C@H](C(=O)NCCN(C)C)C3 [Example 82, (7S)—N-[2-(Dimethylamino)ethyl]-4-[(6-methoxypyrazolo[1,5-a]pyridin-5-yl)amino]-5,6,7,8-tetrahydro[1]benzothieno[2,3-d]pyrimidine-7-carboxamide] — the same, 3 nM
- COCCNC(=O)[C@H]1CCc2c(sc3ncnc(Nc4cc5ccnn5cc4OC)c23)C1 [Example 84, (7S)—N-(2-Methoxyethyl)-4-[(6-methoxypyrazolo[1,5-a]pyridin-5-yl)amino]-5,6,7,8-tetrahydro[1]benzothieno[2,3-d]pyrimidine-7-carboxamide] — the same, 3 nM
- COc1cn2nccc2cc1Nc1ncnc2sc3c(c12)CC[C@H](C(=O)NC(C)(C)C)C3 [Example 86, (7S)—N-tert-Butyl-4-[(6-methoxypyrazolo[1,5-a]pyridin-5-yl)amino]-5,6,7,8-tetrahydro[1]benzothieno[2,3-d]pyrimidine-7-carboxamide] — within 1.5-fold, 4 nM
- COc1cn2nccc2cc1Nc1ncnc2sc3c(c12)CC[C@H](C(=O)NC1(C)CCC1)C3 [Example 87, (7S)-4-[(6-Methoxypyrazolo[1,5-a]pyridin-5-yl)amino]-N-(1-methylcyclobutyl)-5,6,7,8-tetrahydro[1]benzothieno[2,3-d]pyrimidine-7-carboxamide] — within 1.5-fold, 4 nM
- COc1cn2nccc2cc1Nc1ncnc2sc3c(c12)CC[C@H](C(=O)Nc1ccc(F)cc1)C3 [Example 88, (7S)—N-(4-Fluorophenyl)-4-[(6-methoxypyrazolo[1,5-a]pyridin-5-yl)amino]-5,6,7,8-tetrahydro[1]benzothieno[2,3-d]pyrimidine-7-carboxamide] — 2.7-fold higher, 8 nM
- COc1cn2nccc2cc1Nc1ncnc2sc3c(c12)CC[C@H](C(=O)Nc1cccc(Cl)c1)C3 [Example 89, (7S)—N-(3-Chlorophenyl)-4-[(6-methoxypyrazolo[1,5-a]pyridin-5-yl)amino]-5,6,7,8-tetrahydro[1]benzothieno[2,3-d]pyrimidine-7-carboxamide] — 8-fold higher, 24 nM
- COc1cn2nccc2cc1Nc1ncnc2sc3c(c12)CC[C@H](C(=O)Nc1ccc(Cl)c(Cl)c1)C3 [Example 90, (7S)—N-(3,4-Dichlorophenyl)-4-[(6-methoxypyrazolo[1,5-a]pyridin-5-yl)amino]-5,6,7,8-tetrahydro[1]benzothieno[2,3-d]pyrimidine-7-carboxamide] — 78-fold higher, 235 nM
- COc1cn2nccc2cc1Nc1ncnc2sc3c(c12)CC[C@H](C(=O)Nc1ccc(F)c(Cl)c1)C3 [Example 91, (7S)—N-(3-Chloro-4-fluorophenyl)-4-[(6-methoxypyrazolo[1,5-a]pyridin-5-yl)amino]-5,6,7,8-tetrahydro[1]benzothieno[2,3-d]pyrimidine-7-carboxamide] — 16-fold higher, 48 nM
- COc1cn2nccc2cc1Nc1ncnc2sc3c(c12)CC[C@H](C(=O)Nc1cccc(F)c1)C3 [Example 92, (7S)—N-(3-Fluorophenyl)-4-[(6-methoxypyrazolo[1,5-a]pyridin-5-yl)amino]-5,6,7,8-tetrahydro[1]benzothieno[2,3-d]pyrimidine-7-carboxamide] — 2.3-fold higher, 7 nM
- COc1cn2nccc2cc1Nc1ncnc2sc3c(c12)CC[C@H](C(=O)Nc1ccc2[nH]ccc2c1)C3 [Example 93, (7S)—N-(1H-Indol-5-yl)-4-[(6-methoxypyrazolo[1,5-a]pyridin-5-yl)amino]-5,6,7,8-tetrahydro[1]benzothieno[2,3-d]pyrimidine-7-carboxamide] — the same, 3 nM
- CCN(C)C(=O)[C@H]1CCc2c(sc3ncnc(Nc4cc5ccnn5cc4OC)c23)C1 [Example 94, (7S)—N-Ethyl-4-[(6-methoxypyrazolo[1,5-a]pyridin-5-yl)amino]-N-methyl-5,6,7,8-tetrahydro[1]benzothieno[2,3-d]pyrimidine-7-carboxamide] — 3-fold lower, 1 nM
- COc1cn2nccc2cc1Nc1ncnc2sc3c(c12)CC[C@H](C(=O)N(C)CCC(F)(F)F)C3 [Example 96, (7S)-4-[(6-Methoxypyrazolo[1,5-a]pyridin-5-yl)amino]-N-methyl-N-(3,3,3-trifluoropropyl)-5,6,7,8-tetrahydro[1]benzothieno[2,3-d]pyrimidine-7-carboxamide] — 2.3-fold higher, 7 nM
- CCCCN(C)C(=O)[C@H]1CCc2c(sc3ncnc(Nc4cc5ccnn5cc4OC)c23)C1 [Example 97, (7S)—N-Butyl-4-[(6-methoxypyrazolo[1,5-a]pyridin-5-yl)amino]-N-methyl-5,6,7,8-tetrahydro[1]benzothieno[2,3-d]pyrimidine-7-carboxamide] — 3-fold lower, 1 nM
- COc1cn2nccc2cc1Nc1ncnc2sc3c(c12)CC[C@H](C(=O)N(C)CCCN(C)C)C3 [Example 99, (7S)—N-[3-(Dimethylamino)propyl]-4-[(6-methoxypyrazolo[1,5-a]pyridin-5-yl)amino]-N-methyl-5,6,7,8-tetrahydro[1]benzothieno[2,3-d]pyrimidine-7-carboxamide] — 3-fold lower, 1 nM
- COc1cn2nccc2cc1Nc1ncnc2sc3c(c12)CC[C@H](C(=O)N(C)CCN(C)C)C3 [Example 101, (7S)—N-[2-(Dimethylamino)ethyl]-4-[(6-methoxypyrazolo[1,5-a]pyridin-5-yl)amino]-N-methyl-5,6,7,8-tetrahydro[1]benzothieno[2,3-d]pyrimidine-7-carboxamide] — 1.5-fold lower, 2 nM
- COc1cn2nccc2cc1Nc1ncnc2sc3c(c12)CC[C@H](C(=O)N(C)C(C)C)C3 [Example 105, (7S)-4-[(6-Methoxypyrazolo[1,5-a]pyridin-5-yl)amino]-N-methyl-N-(propan-2-yl)-5,6,7,8-tetrahydro[1]benzothieno[2,3-d]pyrimidine-7-carboxamide] — 1.5-fold lower, 2 nM
- COc1cn2nccc2cc1Nc1ncnc2sc3c(c12)CC[C@H](C(=O)N1CC[C@H](N(C)C)C1)C3 [Example 107, [(3S)-3-(Dimethylamino)pyrrolidin-1-yl](7S)-4-[(6-methoxypyrazolo[1,5-a]pyridin-5-yl)amino]-5,6,7,8-tetrahydro[1]benzothieno[2,3-d]pyrimidin-7-ylmethanone] — lower, < 1 nM
- COc1cn2nccc2cc1Nc1ncnc2sc3c(c12)CC[C@H](C(=O)N1C[C@H](O)[C@@H](O)C1)C3 [Example 108, [(3S,4S)-3,4-Dihydroxypyrrolidin-1-yl](7S)-4-[(6-methoxypyrazolo[1,5-a]pyridin-5-yl)amino]-5,6,7,8-tetrahydro[1]benzothieno[2,3-d]pyrimidin-7-ylmethanone] — 3-fold lower, 1 nM
